From patent US8067435B2, “Nitrogen-containing heterocyclic compounds, their preparation and their use as antibacterial drugs” (AstraZeneca AB, priority 2008, dated 2011)
≈ marks a conversion by molar mass, not a printed value.

Tested on: Pseudomonas aeruginosa (1771 Strain of the wild type)
Test: Activity in vitro, method of dilutions in a liquid medium (MIC)
Assay type: cell-based
Details: Pseudomonas aeruginosa 1771 wild type, liquid medium dilution, 24 hrs incubation at 37° C.; for MIC: read-out: MIC (μg/mL) 24 h (P, aerug, 1771)
Method: Activity in vitro, method of dilutions in a liquid medium: A series of tubes is prepared in which the same amount of sterile nutritive medium is distributed, increasing amounts of the product to be studied are distributed in each tube, and each tube is then sown with a bacterial strain. After incubation for 24 hrs in the oven at 37° C., inhibition of growth is appreciated by trans-illumination, which allows determination of the minimum inhibitory concentrations (MICs) expressed in μg/ml.
Thus tests are carried out with the products of Examples 1 to 8 in comparison with products of Examples 7, 9, 11 and 45 of application WO 04/052891. […] The activity difference on Pseudomonas aeruginosa between the products of the invention and the closest products from the prior art is located according to the products in a range from 16 to more than 500.
Activity on Pseudomonas aeruginosa (1771 Strain of the wild type)

Compound | MIC (μg/mL) 24 h (P, aerug, 1771) | MIC
NC[C@@H]1c2nn(C(N)=O)cc2[C@H]2CN1C(=O)N2OS(=O)(=O)O.O=C([O-])C(F)(F)F.[Na+] (relative stereo) [Ex 1, Sodium trifluoroacetate salt of trans 8-(aminomethyl)-2-carbamoyle-4,8-dihydro-5-(sulfooxy)-4,7-methano-7H-pyrazolo[3,4-e][1,3]diazepin-6(5H)-one] | 0.25 µg/mL | 
CN(C)C(=O)n1cc2c(n1)[C@@H](CN)N1C[C@H]2N(OS(=O)(=O)O)C1=O.O=C([O-])C(F)(F)F.[Na+] (relative stereo) [Ex 2, Sodium trifluoroacetate salt of trans 8-(aminomethyl)-2-dimethylcarbamoyle-4,8-dihydro-5-(sulfooxy)-4,7-methano-7H-pyrazolo[3,4-e][1,3]diazepin-6(5H)-one] | 2 µg/mL | 
CNC(=O)n1cc2c(n1)[C@@H](CN)N1C[C@H]2N(OS(=O)(=O)O)C1=O.O=C([O-])C(F)(F)F.[Na+] (relative stereo) [Ex 3, Sodium trifluoroacetate salt of trans 8-(aminomethyl)-2-methylcarbamoyl-4,8-dihydro-5-(sulfooxy)-4,7-methano-7H-pyrazolo[3,4-e][1,3]diazepin-6(5H)-one] | 2 µg/mL | 
NCCn1ncc2c1[C@@H](CN)N1C[C@H]2N(OS(=O)(=O)O)C1=O.O=C([O-])C(F)(F)F.[Na+] (relative stereo) [Ex 4, Sodium trifluoroacetate salt of trans 8-(aminomethyl)-1-(2-amino-ethyl)-4,8-dihydro-5-(sulfooxy)-4,7-methano-7H-pyrazolo[3,4-e][1,3]diazepin-6(5H)-one] | 0.25 µg/mL | 
NCCn1cc2c(n1)[C@@H](CN)N1C[C@H]2N(OS(=O)(=O)O)C1=O.O=C([O-])C(F)(F)F.[Na+] (relative stereo) [Ex 5, Sodium trifluoroacetate salt of trans 8-(aminomethyl)-2-(2-amino-ethyl)-4,8-dihydro-5-(sulfooxy)-4,7-methano-7H-pyrazolo[3,4-e][1,3]diazepin-6(5H)-one] | 0.25 µg/mL | 
NC[C@@H]1c2nn(-c3ccccn3)cc2[C@H]2CN1C(=O)N2OS(=O)(=O)O.O=C([O-])C(F)(F)F.[Na+] (relative stereo) [Ex 6, Sodium trifluoroacetate salt of trans 8-(aminomethyl)-2-(2-pyridinyl)-4,8-dihydro-5-(sulfooxy)-4,7-methano-7H-pyrazolo[3,4-e][1,3]diazepin-6(5H)-one] | 8 µg/mL | 
NC[C@@H]1c2nn(CC(=O)O)cc2[C@H]2CN1C(=O)N2OS(=O)(=O)O.O=C([O-])C(F)(F)F.[Na+] (relative stereo) [Ex 7, Sodium trifluoroacetate salt of trans-8-(aminomethyl)-5,6-dihydro-6-oxo-5-(sulfooxy)-4H-4,7-methanopyrazolo[3,4-e][1,3]diazepin-2(8H)-acetic acid] | 4 µg/mL | 
NC[C@@H]1c2nn(CC(N)=O)cc2[C@H]2CN1C(=O)N2OS(=O)(=O)O.O=C([O-])C(F)(F)F.[Na+] (relative stereo) [Ex 8, Sodium trifluoroacetate salt of trans-8-(aminomethyl)-5,6-dihydro-6-oxo-5-(sulfooxy)-4H-4,7-methanopyrazolo[3,4-e][1,3]diazepin-2(8H)-acetamide] | 0.5 µg/mL | 
CC(C)(O/N=C(\C(=O)N[C@@H]1C(=O)N2C(C(=O)[O-])=C(C[n+]3ccccc3)CS[C@H]12)c1csc(N)n1)C(=O)O [CAZ, Ceftazidime, reference compound] |  | 1 µg/mL (≈ 1.83 µM)
C[C@@H](O)[C@H]1C(=O)N2C(C(=O)O)=C(SCCN=CN)C[C@H]12 [IMP, Imipenem, reference compound] |  | 1 µg/mL (≈ 3.34 µM)
